Measured values taken from PubChem BioAssay AID248 (DTP/NCI, 2004).
Several values for one entry are separate records, joined by “and”; a condition that tells them apart may be missing. Equal entries are not always repeated. Toxic doses and inconclusive results are not listed.

Tested on: L1210 leukemia ip in BDF1 mice, survival T/C
Experiment: NCI In Vivo Anticancer Drug Screen. Data for tumor model L1210 Leukemia (intraperitoneal) in B6D2F1 (BDF1) mice
Conditions: endpoint: mean survival time, higher = longer survival
How it was run: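 Value reflects the ratio of survival in compound-treated mice to survival in vehicle-treated controls, with both groups carrying the same transplanted tumor.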

[1] = dose: 100.0 mg/kg/injection, schedule: Q01DX001 (ip), vehicle: saline
[2] = dose: 200.0 mg/kg/injection, schedule: Q01DX001 (ip), vehicle: saline
[3] = dose: 400.0 mg/kg/injection, schedule: Q01DX001 (ip), vehicle: saline
[4] = dose: 100.0 mg/kg/injection, schedule: Q04DX003 (ip), vehicle: Klucel (hydroxypropylcellulose) (HPC)
[5] = dose: 100.0 mg/kg/injection, schedule: Q01DX001 (ip), vehicle: carboxymethylcellulose (CMC)
[6] = dose: 200.0 mg/kg/injection, schedule: Q01DX001 (ip), vehicle: carboxymethylcellulose (CMC)
[7] = dose: 400.0 mg/kg/injection, schedule: Q01DX001 (ip), vehicle: carboxymethylcellulose (CMC)
[8] = dose: 75.0 mg/kg/injection, schedule: Q01DX001 (ip), vehicle: other
[9] = dose: 150.0 mg/kg/injection, schedule: Q01DX001 (ip), vehicle: other

N/C(=N/N=C/c1ccccc1O)N/N=C\c1ccccc1O
T/C (dose: 15.0 mg/kg/injection, schedule: Q01DX Z (ip), vehicle: carboxymethylcellulose (CMC)): 93 % of control | T/C (dose: 30.0 mg/kg/injection, schedule: Q01DX Z (ip), vehicle: carboxymethylcellulose (CMC)): 92 % of control | T/C (dose: 60.0 mg/kg/injection, schedule: Q01DX Z (ip), vehicle: carboxymethylcellulose (CMC)): 97 % of control and 89 % of control | T/C (dose: 120.0 mg/kg/injection, schedule: Q01DX Z (ip), vehicle: carboxymethylcellulose (CMC)): 92 % of control and 100 % of control | T/C (dose: 240.0 mg/kg/injection, schedule: Q01DX Z (ip), vehicle: carboxymethylcellulose (CMC)): 100 % of control | T/C (dose: 240.0 mg/kg/injection, schedule: Q01DX Z (oral), vehicle: carboxymethylcellulose (CMC)): 105 % of control | T/C (dose: 480.0 mg/kg/injection, schedule: Q01DX Z (ip), vehicle: carboxymethylcellulose (CMC)): 94 % of control | T/C (dose: 480.0 mg/kg/injection, schedule: Q01DX Z (oral), vehicle: carboxymethylcellulose (CMC)): 105 % of control | T/C (dose: 960.0 mg/kg/injection, schedule: Q01DX Z (oral), vehicle: carboxymethylcellulose (CMC)): 105 % of control | T/C (dose: 1920.0 mg/kg/injection, schedule: Q01DX Z (oral), vehicle: carboxymethylcellulose (CMC)): 113 % of control

CC[CH2][Sn]([CH2]CC)([CH2]CC)[O]C(=O)C(Cl)(Cl)Cl
T/C (dose: 0.39 mg/kg/injection, schedule: Q01DX009 (ip), vehicle: saline with Tween-80): 87 % of control | T/C (dose: 0.78 mg/kg/injection, schedule: Q01DX009 (ip), vehicle: saline with Tween-80): 98 % of control | T/C (dose: 1.56 mg/kg/injection, schedule: Q01DX009 (ip), vehicle: saline with Tween-80): 91 % of control

COc1ccc(C2=NC(=O)C(C)(C(C)=O)O2)cc1 (configuration not stated)
T/C [1]: 93 % of control | T/C [2]: 90 % of control | T/C [3]: 90 % of control

O=C(CCN1CC1)NCCCCCCCCNC(=O)CCN1CC1
T/C (dose: 1.0 mg/kg/injection, schedule: Q01DX009 (ip), vehicle: saline): 91 % of control | T/C (dose: 2.0 mg/kg/injection, schedule: Q01DX009 (ip), vehicle: saline): 105 % of control | T/C (dose: 4.0 mg/kg/injection, schedule: Q01DX009 (ip), vehicle: carboxymethylcellulose (CMC)): 111 % of control | T/C (dose: 8.0 mg/kg/injection, schedule: Q01DX009 (ip), vehicle: carboxymethylcellulose (CMC)): 96 % of control | T/C (dose: 22.0 mg/kg/injection, schedule: Q01DX001 (ip), vehicle: carboxymethylcellulose (CMC)): 111 % of control | T/C (dose: 26.0 mg/kg/injection, schedule: Q01DX009 (ip), vehicle: carboxymethylcellulose (CMC)): 151 % of control | T/C (dose: 33.0 mg/kg/injection, schedule: Q01DX001 (ip), vehicle: carboxymethylcellulose (CMC)): 122 % of control | T/C (dose: 33.0 mg/kg/injection, schedule: Q01DX009 (ip), vehicle: carboxymethylcellulose (CMC)): 151 % of control | T/C (dose: 50.0 mg/kg/injection, schedule: Q01DX009 (ip), vehicle: carboxymethylcellulose (CMC)): 160 % of control | T/C (dose: 75.0 mg/kg/injection, schedule: Q01DX001 (ip), vehicle: carboxymethylcellulose (CMC)): 150 % of control

CCCNC(Cc1ccccc1)c1ccco1 (configuration not stated)
T/C (dose: 50.0 mg/kg/injection, schedule: Q01DX009 (ip), vehicle: saline): 104 % of control | T/C (dose: 100.0 mg/kg/injection, schedule: Q01DX009 (ip), vehicle: saline): 110 % of control | T/C (dose: 100.0 mg/kg/injection, schedule: Q04DX002 (ip), vehicle: saline): 97 % of control | T/C (dose: 200.0 mg/kg/injection, schedule: Q04DX002 (ip), vehicle: saline): 93 % of control

Cc1noc(NS(=O)(=O)c2ccc(N=NC3SC(=S)NC3=O)cc2)c1C (configuration not stated)
T/C (dose: 75.0 mg/kg/injection, schedule: Q01DX001 (ip), vehicle: saline): 95 % of control | T/C (dose: 150.0 mg/kg/injection, schedule: Q01DX001 (ip), vehicle: saline): 98 % of control | T/C (dose: 300.0 mg/kg/injection, schedule: Q01DX001 (ip), vehicle: saline): 101 % of control

CC(=O)c1ccc(OC(=O)C(C)(C)C)cc1
T/C [1]: 97 % of control | T/C [2]: 103 % of control | T/C [3]: 98 % of control

COc1ccc2c(c1OC)C1(CCN(C)C)CC(=O)CCC1C=C2 (configuration not stated)
T/C (dose: 3.12 mg/kg/injection, schedule: Q01DX009 (ip), vehicle: Klucel (hydroxypropylcellulose) (HPC)): 103 % of control | T/C (dose: 6.25 mg/kg/injection, schedule: Q01DX009 (ip), vehicle: Klucel (hydroxypropylcellulose) (HPC)): 95 % of control | T/C (dose: 12.5 mg/kg/injection, schedule: Q01DX009 (ip), vehicle: Klucel (hydroxypropylcellulose) (HPC)): 98 % of control | T/C (dose: 25.0 mg/kg/injection, schedule: Q01DX009 (ip), vehicle: Klucel (hydroxypropylcellulose) (HPC)): 86 % of control | T/C [4]: 98 % of control

CN(C)CC(=O)c1c[nH]c(=O)[nH]c1=O
T/C (dose: 100.0 mg/kg/injection, schedule: Q01DX009 (ip), vehicle: saline with Tween-80): 112 % of control | T/C (dose: 200.0 mg/kg/injection, schedule: Q01DX009 (ip), vehicle: saline with Tween-80): 94 % of control | T/C (dose: 400.0 mg/kg/injection, schedule: Q01DX009 (ip), vehicle: saline with Tween-80): 102 % of control

COC(=O)CCCCCCCCCCS.[Pb]
T/C (dose: 50.0 mg/kg/injection, schedule: Q01DX001 (ip), vehicle: carboxymethylcellulose (CMC)): 92 % of control | T/C [5]: 94 % of control | T/C [6]: 94 % of control | T/C [7]: 97 % of control

CC(OC(=O)CC(=O)CCl)c1ccccc1 (configuration not stated)
T/C (dose: 100.0 mg/kg/injection, schedule: Q04DX002 (ip), vehicle: Klucel (hydroxypropylcellulose) (HPC)): 102 % of control | T/C (dose: 200.0 mg/kg/injection, schedule: Q04DX002 (ip), vehicle: Klucel (hydroxypropylcellulose) (HPC)): 98 % of control | T/C (dose: 400.0 mg/kg/injection, schedule: Q04DX002 (ip), vehicle: Klucel (hydroxypropylcellulose) (HPC)): 87 % of control

O=C(NCCF)NC1C=CCCC1 (configuration not stated)
T/C [8]: 100 % of control | T/C [9]: 95 % of control | T/C (dose: 300.0 mg/kg/injection, schedule: Q01DX001 (ip), vehicle: other): 94 % of control

CC[C@@H]1C[C@H]2CC3c4[nH]c5ccc(OC)cc5c4CCN(C2)C31
T/C (dose: 25.0 mg/kg/injection, schedule: Q01DX001 (ip), vehicle: saline with Tween-80): 96 % of control | T/C (dose: 50.0 mg/kg/injection, schedule: Q01DX001 (ip), vehicle: saline with Tween-80): 96 % of control | T/C (dose: 100.0 mg/kg/injection, schedule: Q01DX001 (ip), vehicle: saline with Tween-80): 93 % of control and 109 % of control

CCOC(=O)C(C(=O)OCC)=C(C#N)c1c[nH]c2ccccc12
T/C (dose: 100.0 mg/kg/injection, schedule: Q01DX009 (ip), vehicle: Klucel (hydroxypropylcellulose) (HPC)): 103 % of control | T/C [4]: 104 % of control | T/C (dose: 200.0 mg/kg/injection, schedule: Q01DX009 (ip), vehicle: Klucel (hydroxypropylcellulose) (HPC)): 96 % of control | T/C (dose: 200.0 mg/kg/injection, schedule: Q04DX003 (ip), vehicle: Klucel (hydroxypropylcellulose) (HPC)): 95 % of control | T/C (dose: 400.0 mg/kg/injection, schedule: Q01DX009 (ip), vehicle: Klucel (hydroxypropylcellulose) (HPC)): 92 % of control | T/C (dose: 400.0 mg/kg/injection, schedule: Q04DX003 (ip), vehicle: Klucel (hydroxypropylcellulose) (HPC)): 96 % of control

CC(=O)N1Cc2c(N)nc(N)nc2C1C (configuration not stated)
T/C [5]: 101 % of control | T/C [6]: 95 % of control | T/C [7]: 104 % of control

CCOC(=O)/C(C#N)=C(\C)CC(C)C
T/C (dose: 5.0 mg/kg/injection, schedule: Q01DX001 (ip), vehicle: saline): 101 % of control | T/C (dose: 10.0 mg/kg/injection, schedule: Q01DX001 (ip), vehicle: saline): 95 % of control | T/C (dose: 20.0 mg/kg/injection, schedule: Q01DX001 (ip), vehicle: saline): 95 % of control | T/C (dose: 40.0 mg/kg/injection, schedule: Q01DX001 (ip), vehicle: saline): 98 % of control | T/C (dose: 80.0 mg/kg/injection, schedule: Q01DX001 (ip), vehicle: saline): 101 % of control | T/C [1]: 98 % of control

O=C(/C=C/CBr)NC(Cc1ccccc1)C(=O)O (configuration not stated)
T/C [8]: 104 % of control

O=[As](O)(CC(O)c1ccccc1)c1ccccc1 (configuration not stated)
T/C (dose: 6.25 mg/kg/injection, schedule: Q01DX001 (ip), vehicle: saline with Tween-80): 97 % of control | T/C (dose: 12.5 mg/kg/injection, schedule: Q01DX001 (ip), vehicle: saline with Tween-80): 103 % of control

Nc1ccc(SCCC(=O)O)cc1
T/C [8]: 96 % of control and 97 % of control | T/C [9]: 105 % of control
